Patent US11950594B2, “Methods and compositions for inhibiting formation of biofilms” (INSTITUTE OF MICROBIOLOGY, CHINESE ACADEMY OF SCIENCES, priority 2019, dated 2024)

Columns and labels:
LasR = experiment: QS gene expression, GFP promoter fusion; type: cell-based, Pseudomonas aeruginosa; conditions: FIGS. 8A to 8D
Source text: (§1) The QS system may regulate the formation of biofilm and the expression of multiple virulence factors. Whether the coumarin-chalcone compound C9 influences the QS regulation system was further studied. In the embodiment, a green fluorescent protein (GFP) was used as a reporter gene to examine the influence of the coumarin-chalcone compound C9 on the QS system. In this experiment, the transcription regulator genes (including LasR, RhIR, and PqsR) in three QS systems of Pseudomonas aeruginosa were used to study the gene expression of the QS system. By PCR expansion, promoter regions of the three genes were transcriptionally fused with a promoterless GFP fusion expression vector pProbe-AT, respectively, to construct transcription fusion plasmids that can indicate the expression level of LasR, RhIR, and PqsR genes, which were used as representatives of the expression of the three QS systems.
(§2) The overnight cultured bacterial solution was inoculated into the freshly prepared LB liquid medium to make its OD600 at 0.25, and then cultured for 2 h. Fluorescence was measured at 4 h, 8 h, 12 h, 16 h, 20 h, 24 h, respectively, and the measurement was performed in a 96-well plate. Bacterial growth was monitored by measuring OD600. The gene expression level was normalized by dividing the fluorescence value by the OD600 value of each sample.
(§3) The effects of the coumarin-chalcone compound C9 on the transcription of the three known QS regulators LasR, RhIR, and PqsR were examined by gfp fusion. FIGS. 8A to 8D are schematic diagrams illustrating the inhibition of QS systems in P. aeruginosa by compound C9. The transcription of QS-related genes (LasI, LasR, RhII, RhIR, PqsA, and PqsR) was indicated by the green fluorescent intensity of GFP-tagged promoter region through pPROBE-AT′ plasmid, the data of a blank group, a control group, and an experimental group treated with a coumarin-chalcone compound C9 were presented.

PqsR = experiment: QS gene expression, GFP promoter fusion; type: cell-based, Pseudomonas aeruginosa; conditions: FIGS. 8A to 8D
Source text: as §1, §2, §3

RhIR = experiment: QS gene expression, GFP promoter fusion; type: cell-based, Pseudomonas aeruginosa; conditions: FIGS. 8A to 8D
Source text: as §1, §2, §3

PAO1 strains = experiment: Bacterial motility assay, twitching plate; type: cell-based, Pseudomonas aeruginosa; conditions: 37° C., 24 hours
Description: PAO1 strains were inoculated into a LBNS agar plate and were cultured overnight at 37° C. Single colonies were respectively stab-inoculated to the bottom of twitching plates with and without the coumarin-chalcone compound C9, and cultured at 37° C. for 24 hours. The growth of bacteria at an interface between the agar and the plastic plate was a twitching movement. When 1% TTC was added to the medium, the area that bacteria have visited may turn red, and then the diameter of the red area on each twitching plate was measured.

[1] = system: c-di-GMP (PAO1/pCdrA::gfp (ASV)); experiment: Intracellular c-di-GMP, indirect, pCdrA::gfp reporter; type: cell-based, Pseudomonas aeruginosa; conditions: FIG. 6
Source text: (§4) The intracellular c-di-GMP may control the conversion of bacterial lifestyle between plankton and biofilm. In order to analyze an effect of the coumarin-chalcone compound C9 on a concentration of the intracellular c-di-GMP, direct and indirect methods were used to measure the level of c-di-GMP in Pseudomonas aeruginosa.
Since the transcription and expression of the extracellular protein CdrA was related to the intracellular concentration of cyclic diguanylic acid (c-di-GMP), PAO1/pCdrA::gfp^s (ASV) was used to analyze c-di-GMP level indirectly.

intracellular c-di-GMP = experiment: Intracellular c-di-GMP, direct, LC-MS/MS quantification; type: cell-based, Pseudomonas aeruginosa; conditions: FIG. 7
Source text: as §4
C-di-GMP was directly extracted from PAO1 strain grown with or without the coumarin-chalcone compound C9. The intracellular c-di-GMP was directly measured by LC-MS/MS quantification.

[2] = system: Pseudomonas aeruginosa biofilm; experiment: MBEC of antibiotics, Calgary biofilm device; type: cell-based; conditions: treated with C9 5 mM, versus untreated group
Description: MIC and MBEC values of a biofilm formed on a peg of a […] biofilm device (CGM and CBD) treated with the coumarin-chalcone compound C9 were measured according to methods (Innovotech) in MBECTM high throughput experimental operation manual. Biofilm treated with the coumarin-chalcone compound C9 (5 mM) was cultured in an antibiotic-containing medium in a 96-well plate for 24 h, and the MIC value was obtained by measuring the OD600 of planktonic cells of the above samples. To determine the MBEC value, the biofilm treated with the coumarin-chalcone compound C9 (5 mM) was cultured in an antibiotic-containing medium in a 96-well plate for 24 h, then the biofilm was ultrasonically crushed and subsequently incubated at 37° C. for another 24 hours. Biomass of newly formed biofilms was recorded to indicate the corresponding MBEC value.

[3] = system: Pseudomonas aeruginosa PAO1; experiment: Growth curve analysis (OD600); type: cell-based; conditions: 5 mM C9, LB, 37° C., 24 h
Description: Pseudomonas aeruginosa PAO1 (optical density OD600≈1.5) was cultured in LB liquid medium overnight, and 1% inoculation amount of the bacterial solution was inoculated into a fresh LB liquid medium. Two equal amounts of bacterial solution with and without 5 mM coumarin-chalcone compound C9 were cultured in a shaking incubator with 200 rpm at 37° C. for 24 h. OD value of the bacterial solution at 600 nm was measured every hour with a spectrophotometer to trace bacterial growth.

[4] = Stability at different pH, UV-Vis spectral analysis; type: physicochemical; conditions: UV absorption, pH range of 3.4 to 8.4
Description: UV-Vis spectral analysis was used to study the stability of the coumarin-chalcone compound C9 at a pH range of 3.4 to 8.4. […] After reaching pH=2, KOH (25 mM) was added slowly until the pH reached 12. In this way, a graph of a relationship between the pH and the volume of KOH added was plotted to find an equivalent point and thus the pKa.
In the embodiment, the stability of the coumarin-chalcone compound C9 was studied. FIGS. 10A to 10C are schematic diagrams illustrating the stability of a coumarin-chalcone compound C9. […] The UV absorption spectroscopy in the pH range of 3.4 to 8.4 further supported the stability of the coumarin-chalcone compound C9. First, HCl (25 mM) was continually added to the coumarin-chalcone compound C9 (initial pH=6.9) until the pH reached 3.4 (FIG. 10B), resulting in an increase in the strength of an absorption band at 330 nm. […] The stability of the coumarin-chalcone compound C9 indicated a great potential to be an anti-QS and anti-biofilm drug.

With `COc1cccc(/C=C/C(=O)c2cc3ccccc3oc2=O)c1` [Compound C9] the “transcription of LasR” value (LasR) was “downregulated”, the “transcription of PqsR” value (PqsR) was “downregulated” and the “transcription of RhIR” value (RhIR) was “downregulated”. The “twitching motility mediated by type IV pili” value (PAO1 strains) was “no effect”, the “fluorescence intensity of PAO1/pCdrA::gfp (ASV)” value [1] was “significantly reduced” and the “reduction on the c-di-GMP concentration” value (intracellular c-di-GMP) was 2 fold. The “MBEC of a biofilm against ciprofloxacin” value [2] was “significantly lower”, the “MBEC of a biofilm against tobramycin” value [2] was “significantly lower” and the “effect on growth of Pseudomonas aeruginosa PAO1 (OD600)” value [3] was “no significant effect”. For the same compound, the “stability at different pH conditions” value [4] was “stable at different pH conditions”.
